From patent publication US7759345B2, “Antitumoral derivatives of ET-743” (priority 2001, dated 2010)

What was measured:
A-549 = test: Inhibition of cells growth by colorimetric assay (SRB), A-549; format: cell-based
How it was run: (§1)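 48 h SRB cytotoxicity assay; compound range 10–10^−8 μg/ml; seeding 5×10^3 cells/well, 18 h pre-attachment; OD 490 nm; GI, TGI, LC from triplicate means ± SD.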

SK-MEL-28 = test: Inhibition of cells growth by colorimetric assay (SRB), SK-MEL-28; format: cell-based
How it was run: as §1

HT-29 = test: Inhibition of cells growth by colorimetric assay (SRB), HT-29; format: cell-based
How it was run: as §1

SW620 = test: Inhibition of cells growth by colorimetric assay (SRB), SW620; format: cell-based
Description: (§2) 2°.—Inhibition of Cells Growth by Colorimetric Assay.
(§3) A colorimetric type of assay, using sulforhodamine B (SRB) reaction has been adapted for a quantitative measurement of cell growth and viability [following the technique described by Philip Skehan, et al. (1990), New colorimetric cytotoxicity assay for anticancer drug screening, J. Natl. Cancer Inst., 82:1107-1112]
(§4) This form of the assay employs 96 well cell culture microplates of 9 mm diameter (Faircloth, 1988; Mosmann, 1983). Most of the cell lines are obtained from American Type Culture Collection (ATCC) derived from different human cancer types.
(§5) Cells are maintained in RPMI 1640 10% FBS, supplemented with 0.1 g/l penicillin and 0.1 g/l streptomycin sulfate and then incubated at 37° C., 5% CO2 and 98% humidity. For the experiments, cells were harvested from subconfluent cultures using trypsin and resuspended in fresh medium before plating.
(§6) Cells are seeded in 96 well microtiter plates, at 5×10^3 cells per well in aliquots of 195 μl medium, and they are allowed to attach to the plate surface by growing in drug free medium for 18 hours. Afterward, samples are added in aliquots of 5 μl in a ranging from 10 to 10^−8 μg/ml, dissolved in DMSO/EtOH/PBS (0.5:0.5:99). After 48 hours exposure, the antitumor effect are measured by the SRB methodology: cells are fixed by adding 50 μl of cold 50% (wt/vol) trichloroacetic acid (TCA) and incubating for 60 minutes at 4° C. Plates are washed with deionized water and dried. One hundred μl of SRB solution (0.4% wt/vol in 1% acetic acid) is added to each microtiter well and incubated for 10 minutes at room temperature. Unbound SRB is removed by washing with 1% acetic acid. Plates are air dried and bound stain is solubilized with Tris buffer. Optical densities are read on a automated spectrophotometric plate reader at a single wavelength of 490 nm.
(§7) The values for mean+/−SD of data from triplicate wells are calculated. Some parameters for cellular responses can be calculated: GI=growth inhibition, TGI=total growth inhibition (cytostatic effect) and LC=cell killing (cytotoxic effect).
(§8) Obtained results may predict the usefulness of a certain drug as a potential cancer treatment. For this technique, compounds which show GI50 values smaller than 10 μg/ml are selected to continue with further studies. GI50's data allow to predict that not only could a drug be cystostatic, but also it could have a potential in terms of tumor reduction.

DU-145 = test: Inhibition of cells growth by colorimetric assay (SRB), DU-145; format: cell-based
How it was run: as §1

MCF-7 = test: Inhibition of cells growth by colorimetric assay (SRB), MCF-7; format: cell-based
Description: as §2, §3, §4, §5, §6, §7, §8

MDA-MB-231 = test: Inhibition of cells growth by colorimetric assay (SRB), MDA-MB-231; format: cell-based
Description: as §2, §3, §4, §5, §6, §7, §8

A-498 = test: Inhibition of cells growth by colorimetric assay (SRB), A-498; format: cell-based
Description: as §2, §3, §4, §5, §6, §7, §8

tumor cell culture = test: Bioassays for antitumor screening, cell line not given; format: cell-based; conditions: cell line not stated
Source text: Bioassays for Antitumor Screening
The finality of these assays is to interrupt the growth of a “in vitro” tumor cell culture by means a continued exhibition of the cells to the sample to be testing.

Source text for Heart: (§9) Toxicity was asssessed by the methods reported in Toxicology in Vitro, 15 (2001) 571-577, J. Luber Narod et al.: “Evaluation of the use of in vitro methodolodies as tools for screening new compounds for potential in vivo toxicity”.
Source text for Kidney: as §9
Source text for Liver: as §9
Source text for Myelo: as §9
Source text for Skeletal: as §9

With `COc1cc2c(cc1OC(=O)OC(C)(C)C)CCN[C@]21CS[C@@H]2c3c(OC(=O)OC(C)(C)C)c(C)c4c(c3[C@H](COC1=O)N1C2[C@H]2c3c(cc(C)c(OC)c3OC(=O)OC(C)(C)C)C[C@@H]([C@@H]1O)N2C)OCO4` (stereo partly drawn) [Compound 174] the GI50 (A-549; Homo sapiens, A549, 48 h, SRB assay, 48 hours exposure, read-out: A-549 GI50) was 0.98 nM, the LC50 (concentration for 50% cell killing) (A-549; Homo sapiens, A549, 48 h, read-out: A-549 LC50, SRB assay, 48 hours exposure) was 9.8 nM and the “A-549 TGI” value (A-549; SRB assay, 48 hours exposure) was 2.94E-09. For the same molecule, the GI50 (SK-MEL-28; Homo sapiens, SK-MEL-28, 48 h, SRB assay, 48 hours exposure, read-out: MEL-28 GI50) was 1.96 nM, the CC50 (SK-MEL-28; Homo sapiens, SK-MEL-28, 48 h, read-out: MEL-28 LC50, SRB assay, 48 hours exposure) was 9.8 nM and the “MEL-28 TGI” value (SK-MEL-28; SRB assay, 48 hours exposure) was 4.90E-09. The GI50 (HT-29; Homo sapiens, HT-29, 48 h, SRB assay, 48 hours exposure, read-out: HT-29 GI50) was 1.96 nM, the LC50 (concentration for 50% cell killing) (HT-29; Homo sapiens, HT-29, 48 h, read-out: HT-29 LC50, SRB assay, 48 hours exposure) was 9.8 nM and the “HT-29 TGI” value (HT-29; SRB assay, 48 hours exposure) was 6.86E-09. For the same molecule, the LC50 (SW620; Homo sapiens, SW-620, 48 h, read-out: SW-620 LC50) was 686 nM, the GI50 (SW620; Homo sapiens, SW-620, SRB assay, 48 hours exposure, read-out: SW-620 GI50) was 0.98 nM and the “SW-620 TGI” value (SW620; SRB assay, 48 hours exposure) was 6.86E-09. For the same molecule, the GI50 (DU-145; Homo sapiens, DU-145, 48 h, SRB assay, 48 hours exposure, read-out: DU-145 GI50) was 0.294 nM, the CC50 (DU-145; Homo sapiens, DU-145, 48 h, read-out: DU-145 LC50, SRB assay, 48 hours exposure) was 3.92 nM and the “DU-145 TGI” value (DU-145; SRB assay, 48 hours exposure) was 9.80E-10. For the same molecule, the GI50 (MCF-7; Homo sapiens, MCF7, 48 h, read-out: MCF GI50) was 3.92 nM, the CC50 (MCF-7; Homo sapiens, MCF7, 48 h, read-out: MCF LC50) was 88.2 nM and the “MCF TGI” value (MCF-7; SRB assay, 48 hours exposure) was 1.96E-08. The CC50 (MDA-MB-231; Homo sapiens, MDA-MB-231, 48 h, read-out: MB-231 LC50) was 98 nM, the GI50 (MDA-MB-231; Homo sapiens, MDA-MB-231, SRB assay, 48 hours exposure, read-out: MB-231 GI50) was 0.98 nM and the “MB-231 TGI” value (MDA-MB-231; SRB assay, 48 hours exposure) was 5.88E-09. The LC50 (A-498; Homo sapiens, A498, 48 h, read-out: A-498 LC50) was 9.8 nM, the GI50 (A-498; Homo sapiens, A498, SRB assay, 48 hours exposure, read-out: A-498 GI50) was 1.96 nM and the “A-498 TGI” value (A-498; SRB assay, 48 hours exposure) was 3.92E-09. For the same molecule, the “antitumor activity (in words)” value (tumor cell culture) was “very active (E-10)”, the “Toxicity Data Liver” value (Liver) was 1.34E-08 and the “Toxicity Data Heart” value (Heart) was 2.76E-08. The “Toxicity Data Myelo” value (Myelo) was 7.27E-08, the “Toxicity Data Skeletal” value (Skeletal) was 9.80E-07 and the “Toxicity Data Kidney” value (Kidney) was 1.24E-08.
